# Patent US20230416245A1, “ADENOSINE ANALOGS FOR THE TREATMENT OF DISEASE” (BIOINTERVENE, INC., priority 2020, published 2023)
# Experiments:
# [1] = target: T1, human adenosine A3 receptor (Homo sapiens (Human), UniProt P0DMS8); assay: Adenosine receptor binding assay ([125I]-AB-MECA competition); conditions: inhibition of 0.15 nM [125I]-AB-MECA binding, membranes of cells expressing human A3 receptor; read-out: hA3 Ki: Ki
# Description: Example 30: Adenosine Receptor Binding Assay
# Materials and Reference Compounds: [^125I]-AB-MECA and [^3H]CCPA are both obtained from Amersham Biosciences (Little Chalfont, UK). IB-MECA are obtained from Tocris (Bristol, UK) and N6-cyclopentyl adenosine (CPA) is obtained from Sigma-Alrich (Poole, UK). Cell culture media, G418 and hygromycin are obtained from Invitrogen (Paisley, UK). Fetal calf serum is obtained from Perbio Science (Cheshire, UK). All other reagents are obtained from Fisher Chemicals (Loughborough, UK).
# The method followed is that of Yates L, Clark J H, Martin T J, James S, Broadley K J, Kidd E J. Radioligand binding and functional responses of ligands for human recombinant adenosine A3 receptors. Auton Autacoid Pharmacol. 2006; 26(2):191-200. Cells stably transfected with the human adenosine A3 or A1 receptor are grown in Dulbecco's modified Eagles medium with nutrient mixture F12 containing NaHCO3 and Glutamax. Media is supplemented with 10% fetal calf serum, geneticin (G418; 0.67 mg/mL), hygromycin (500 μg/mL) and adenosine deaminase (1 U/mL). Cells are maintained at 37° C. with 5% CO2 in air. Cells are harvested and homogenized in ice-cold Tris buffer [50 mM Tris, 150 mM NaCl, 1 mM ethylenediaminetetraacetic acid (EDTA), pH 7.4] supplemented with the peptidase inhibitors, 4-(2-aminoethyl)benzenesulfonylfluoride (1 mM) and bacitracin (0.1 mg/mL), using a Polytron homogenizer (3×10 s bursts). The homogenate was spun for 10 min (4° C.) at 500 g. The supernatant is retained and the pellet is re-suspended in the buffer, homogenized and spun as above. The combined supernatants are centrifuged for 15 min (4° C.) at 48,000 g. The resultant pellet is re-suspended in the buffer and centrifuged for a second time at 48,000 g. The membrane pellet is then suspended in Tris buffer containing no peptidase inhibitors or adenosine deaminase and stored at −80° C. at a protein concentration of 1 mg/mL.
# Binding Assays: Radioligand-binding assays were performed using the adenosine A3 receptor agonist [^125I]-AB-MECA and the A1 receptor agonist [^3H]CCPA. Binding assays were conducted in a total volume of 100 μL containing a 50 mM Tris, pH 7.4 buffer with or without 10 mM MgCl2, 20 μg membranes and either 0.15 nM [^125I]-AB-MECA (for the A3 receptor) or 1 nM [^3H]CCPA (for the A1 receptor). Assays were conducted at room temperature for 60 min (A1 receptor) or 120 min (A3 receptor) and terminated by the addition of 2 ml of ice-cold wash buffer (50 mM Tris, pH 7.4 with or without 10 mM MgCl2) and rapid filtration over 0.03% polyethylenimine-treated Whatman GF/C filters using a Brandel cell harvester (Semat International Ltd., St Albans, UK). Filters were then washed three times with 2 ml of ice-cold buffer. The filter-bound radioactivity were counted using a Compugamma counter (LKB Wallac, Turku, Finland). Competition experiments were performed to investigate the ability of reference compounds and embodiments of the invention to inhibit [^125I]-AB-MECA binding. Non-specific binding were determined using the respective compound at its highest concentration.
# Data Analysis: The Kd and Bmax values for binding data were calculated based upon the molar amounts of bound and free [^125I]-AB-MECA. […] IC50 and Ki values and Hill slopes for inhibition of the radioligand binding by the compounds of the invention were calculated from the ligand competition curves using the Excel spreadsheet and the Kd value calculated for either [^125I]-AB-MECA or [^3H]CCPA. The results were expressed as a percent of control specific binding and as a percent inhibition of control specific binding obtained in the presence of the compounds of the invention. The IC50 values (concentration causing a half-maximal inhibition of control specific binding) and Hill coefficients (nH) were determined by non-linear regression analysis of the competition curves generated with mean replicate values using Hill equation curve fitting: […]
# [2] = target: T1, human adenosine A3 receptor; assay: Intracellular cAMP levels (inhibition of forskolin-stimulated cAMP production); assay type: cell-based; conditions: for EC50: CHO cells expressing human adenosine A3 receptors, forskolin 10 μM; for CAMP Efficacy (%): maximal response as percentage of the response produced by 100 nM IB-MECA
# Description: Example 31: Intracellular cAMP Levels
# The method followed is that published in Yates L, Clark J H, Martin T J, James S, Broadley K J, Kidd E J. Radioligand binding and functional responses of ligands for human recombinant adenosine A3 receptors. Auton Autacoid Pharmacol. 2006 April; 26(2):191-200.
# Materials and Cell Culture: Adenosine deaminase was obtained from Roche (Lewes, UK). Forskolin was obtained from Sigma-Aldrich (Poole, UK). The sources of other materials are provided above in Example 1. CHO-K1 cells stably transfected with the human adenosine A3 receptor were grown in Dulbecco's modified Eagles medium with nutrient mixture F12 containing NaHCO3 and Glutamax. Media was supplemented with 10% fetal calf serum, geneticin (G418; 0.67 mg/mL), hygromycin (500 μg/mL) and adenosine deaminase (1 U/mL). Cells were maintained at 37° C. with 5% CO2 in air.
# cAMP Measurements: Intracellular cAMP production was measured directly using a non-acetylation cAMP enzyme immunoassay (Amersham Biosciences, Little Chalfont, UK). Cultured CHO cells expressing human adenosine A3 receptors were allowed to plate overnight in 96-well plates in culture medium containing adenosine deaminase. Twenty-four hours later, they were incubated with adenosine analogues or compounds of the invention (0.1 nM-1 μM) for 5 min at 37° C., followed by incubation with forskolin (10 μM) for 10 min. The cells were then lysed with 200 μL of lysis reagent 1 provided with the kit for 10 min to release intracellular cAMP. Aliquots of the supernatants were then transferred to a 96-well microtitre plate coated with donkey anti-rabbit IgG; 100-μL cAMP standards (12.5-3200 fmol/well) were also added to the microtitre plate; 100 μL of rabbit anti-cAMP antibody was added to all wells and incubated at 2-5° C. for 2 h. The antiserum was made up in lysis reagent 2, which sequesters the key component in lysis reagent 1 and ensures that cAMP is free for subsequent analysis. Then 50 μL of cAMP peroxidase conjugate was added to all wells and left to incubate for 60 min at 2-5° C. to allow competition for the antibody between the un-labelled and horse radish peroxidase (HRP)-labelled cAMP. Wells were then washed with buffer and 150 μL of enzyme substrate containing 3,3′,5,5′-tetramethylbenzidine/hydrogen peroxide in 20% (v/v) dimethylformamide was added to each well and left to incubate for 60 min on a Titramax 100 microtitre plate shaker (Heidolph Instruments, Schwabach, Germany) at room temperature for color development. The reaction was stopped by the addition of 100 μL of 1 M sulfuric acid and the optical density (OD) read at 450 nm on a spectrophotometric MRX microplate reader (Dynex Technologies, Chantilly, VA, USA).
# Analyses: Each sample/standard was analyzed in duplicate and the resulting OD values averaged. The percent bound (B/Bo) for each standard and sample was calculated using the following relationship: […]
# where B is the specific OD for standard/sample and Bo is the specific OD for the zero standard. A standard curve was generated by plotting % B/Bo as a function of the log fmol cAMP standard per well. The fmol per well value for cAMP in each sample was then read from the graph. The results are expressed as a percent of control agonist response: (measured response/control response)*100 in the presence of the compounds of the invention. Concentration-response curves for inhibition of cAMP production were constructed for all compounds of the invention and reference compounds. The EC50 values (concentration producing a half-maximal response) were determined by non-linear regression analysis of the concentration-response curves generated with mean replicate values using Hill equation curve fitting, according to the equation:
# where Y=response, A=left asymptote of the curve, D=right asymptote of the curve, C=compound concentration, and C50=EC50, and nH=slope factor. […]
# T1 sequence (P0DMS8 whole entry): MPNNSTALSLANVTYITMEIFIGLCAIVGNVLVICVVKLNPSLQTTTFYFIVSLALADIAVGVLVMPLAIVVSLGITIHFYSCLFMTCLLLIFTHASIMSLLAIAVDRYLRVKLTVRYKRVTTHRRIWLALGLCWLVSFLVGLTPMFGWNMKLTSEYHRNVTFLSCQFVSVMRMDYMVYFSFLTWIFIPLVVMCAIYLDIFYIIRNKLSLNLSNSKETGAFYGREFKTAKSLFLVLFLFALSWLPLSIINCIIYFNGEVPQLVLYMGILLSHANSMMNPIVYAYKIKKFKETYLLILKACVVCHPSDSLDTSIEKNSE
SMILES,Ki [1] [nM],EC50 [2] [nM],CAMP Efficacy (%) [2] [%]
"CCNc1cc(C#N)nc2c1ncn2[C@H]1[C@H](O)[C@H](O)[C@]2(C(=O)NC)C[C@H]12 [Compound 70, (1S,2R,3S,4R,5S)-4-(5-cyano-7-(ethylamino)-3H-imidazo[4,5-b]pyridin-3-yl)-2,3-dihydroxy-N-methylbicyclo[3.1.0]hexane-1-carboxamide]",0.133,0.1,104.76
"CNC(=O)C12C[C@@H]1[C@@H](n1cnc3c(NCC4CC4)cc(Cl)nc31)[C@H](O)[C@@H]2O (stereo in doubt) [Compound 63, (1S,2R,3S,4R,5S)-4-(5-chloro-7-((cyclopropylmethyl)amino)-3H-imidazo[4,5-b]pyridin-3-yl)-2,3-dihydroxy-N-methylbicyclo[3.1.0]hexane-1-carboxamide]",0.72,0.22,105.1
"CNC(=O)[C@@]12C[C@@H]1[C@@H](n1cnc3c(NCc4cc(Cl)ccc4OCc4cc(C)no4)cc(Cl)nc31)[C@H](O)[C@@H]2O [Compound 62, (1S,2R,3S,4R,5S)-4-(5-chloro-7-((5-chloro-2-((3-methylisoxazol-5-yl)methoxy)benzyl)amino)-3H-imidazo[4,5-b]pyridin-3-yl)-2,3-dihydroxy-N-methylbicyclo[3.1.0]hexane-1-carboxamide]",0.33,0.31,103.26
"CCNc1c(C#N)c(Cl)nc2c1ncn2[C@H]1[C@H](O)[C@H](O)[C@@H]2C[C@@H]21 [Compound 93, 5-chloro-3-((1S,2R,3S,4R,5R)-3,4-dihydroxybicyclo[3.1.0]hexan-2-yl)-7-(ethylamino)-3H-imidazo[4,5-b]pyridine-6-carbonitrile]",2.59,15.2,52
"O[C@@H]1[C@H](O)[C@@H]2C[C@@H]2[C@H]1n1cnc2c(NCc3cc(Cl)ccc3Cl)cc(Cl)nc21 [Compound 68, (1R,2R,3S,4R,5S)-4-(5-chloro-7-((2,5-dichlorobenzyl)amino)-3H-imidazo[4,5-b]pyridin-3-yl)bicyclo[3.1.0]hexane-2,3-dio]",4.75,1.33,38.22
